# Data as given in US20120190752A1, “EXO-S-MECAMYLAMINE METHOD, USE, AND COMPOUND FOR TREATMENT” (Targacept Inc., priority 2009, published 2012).
# Test system: subjects with major depressive disorder (MDD) who were inadequate responders to citalopram
# Test: HAMD-17 total score, Phase 2b trial of TC-5214 as add-on to citalopram
# Type: in vivo, human
# Source text: The Hamilton Rating Scale for Depression (HRSD), also known as the Hamilton Depression Rating Scale (HDRS) or abbreviated to HAM-D or HAMD, is a multiple choice questionnaire that clinicians may use to rate the severity of a patient's major depression (Hamilton 1967). The questionnaire rates the severity of symptoms observed in depression such as low mood, insomnia, agitation, anxiety and weight loss. The questionnaire is presently one of the most commonly used scales for rating depression in medical research. The clinician chooses the possible responses to each question by interviewing the patient and by observing the patient's symptoms. Each question has multiple possible responses which increase in severity. Although Hamilton's original scale had 17 questions, others later developed HRSD scales with different numbers of questions, the greatest of which is 29 (HRSD-29). Clinicians can use the HRSD in place of, or in conjunction with, the Montgomery-Åsberg Depression Rating Scale (MADRS), the Beck Depression Inventory (BDI), the Zung Self-Rating Depression Scale, the Wechsler Depression Rating Scale, the […] Depression Rating Scale, the Inventory of Depressive Symptomatology (IDS), the Quick Inventory of Depressive Symptomatology (QIDS), and other questionnaires. […] The results on all of the trial's secondary efficacy measures, including assessments of depression, irritability, disability, cognition, severity of illness and global improvement, were also statistically significant in favor of TC-5214 on an intent to treat basis. The Phase 2b trial of TC-5214 as an augmentation treatment for MDD was a two-phase trial conducted at 20 sites in India and three sites in the United States. In the first phase, 579 subjects with MDD received first-line treatment with citalopram hydrobromide for eight weeks, 20 mg daily for the first four weeks and 40 mg daily for the next four weeks. Citalopram, an approved treatment for MDD marketed in the United States as […]®, is from the drug class known as selective serotonin reuptake inhibitors. At the end of the eight weeks, subjects whose MADRS score had improved less than 50 percent and whose CGI-SI score was no lower than 4 were considered partial or non responders and randomized into the double blind second phase of the trial. In the double blind second phase, subjects continued their citalopram treatment and also received either add-on TC-5214 or add-on placebo for an additional eight weeks. The daily dosage of TC-5214 was initially 2 mg and could be increased at the discretion of the investigator to 4 mg and to 8 mg based on tolerability and therapeutic response. The primary outcome measure for the trial was mean change between TC-5214 and placebo from double blind baseline as measured by HAM-D at week 16. The intent to treat dataset included 265 subjects in the second phase. In more detail, a multi-center double-blind, randomized, placebo-controlled, parallel group, flexible dose titration study of TC-5214 as adjunctive therapy in subjects with major depressive disorder (MDD) who were inadequate responders to citalopram was conducted in centers in the US and India. The study consisted of a screening period, baseline/washout period, open-label phase, double-blind phase, and a follow-up visit. Subject participation in the study could continue for up to 16 weeks of treatment. Following a washout period of up to 28 days for other antidepressants, subjects with MDD and a MADRS total score >/=28 and a Clinical Global Impression-Severity (CGI-S) score >/=4 were enrolled on Day 1 into an open-label citalopram-only phase of the study. This phase lasted 8 weeks, with citalopram (CIT) dose increased from a once-daily dose of 20 mg (Day 1 through Week 4) to 40 mg (Week 4 through Week 8). A total of 579 subjects entered the open-label citalopram phase. […]
# [1] = ITT and PP, at almost every assessment week, result in words
# [2] = ITT, Double Blind Week 8 (Baseline), before TC-5214
# [3] = ITT, Double Blind Week 18 (Follow-up)
# [4] = ITT, Double Blind Week 18 LOCF (Follow-up)
# [5] = ITT, Double Blind Week 18 LOCF (Follow-up), change from Week 16
smiles,measurement,setting,value
"CNC1(C)C2CCC(C2)C1(C)C (stereo in doubt) [TC-5214, (S)—N,2,3,3-tetramethylnorbornan-2-amine]",HAMD-17 total score change from baseline compared with placebo,"ITT and PP populations, result in words",statistically significant decreases (improvements)
same,HAMD responders (reduction from baseline ≧50%) proportion compared with placebo,[1],higher proportion of responders
same,HAMD-17 remission proportion compared with placebo,[1],higher proportion of subjects in remission
same,"HAMD-17 total score, observed Mean",[2],23.5
same,"HAMD-17 total score, observed Median",[2],24.0
same,HAMD-17 Remission (Score ≦7): Subjects with Remission (number),"ITT, Double Blind Week 9",1
same,HAMD-17 Remission (Score ≦7): Subjects with Remission (percentage),"ITT, Double Blind Week 9",(1%)
same,HAMD-17 Remission (Score ≦7): Subjects without Remission (number),"ITT, Double Blind Week 9",132
same,HAMD-17 Remission (Score ≦7): Subjects without Remission (percentage),"ITT, Double Blind Week 9",(99%)
same,HAMD-17 Remission (Score ≦10): Subjects with Remission (number),"ITT, Double Blind Week 9",4
same,HAMD-17 Remission (Score ≦10): Subjects with Remission (percentage),"ITT, Double Blind Week 9",(3%)
same,HAMD-17 Remission (Score ≦10): Subjects without Remission (number),"ITT, Double Blind Week 9",129
same,HAMD-17 Remission (Score ≦10): Subjects without Remission (percentage),"ITT, Double Blind Week 9",(97%)
same,HAMD-17 reduction from baseline ≧50%: Subjects with Response (number),"ITT, Double Blind Week 9",4
same,HAMD-17 reduction from baseline ≧50%: Subjects with Response (percentage),"ITT, Double Blind Week 9",(3%)
same,HAMD-17 reduction from baseline ≧50%: Subjects without Response (number),"ITT, Double Blind Week 9",129
same,HAMD-17 reduction from baseline ≧50%: Subjects without Response (percentage),"ITT, Double Blind Week 9",(97%)
same,HAMD-17 Remission (Score ≦7): Subjects with Remission (number),"ITT, Double Blind Week 10",6
same,HAMD-17 Remission (Score ≦7): Subjects with Remission (percentage),"ITT, Double Blind Week 10",(5%)
same,HAMD-17 Remission (Score ≦7): Subjects without Remission (number),"ITT, Double Blind Week 10",127
same,HAMD-17 Remission (Score ≦7): Subjects without Remission (percentage),"ITT, Double Blind Week 10",(95%)
same,HAMD-17 Remission (Score ≦10): Subjects with Remission (number),"ITT, Double Blind Week 10",20
same,HAMD-17 Remission (Score ≦10): Subjects with Remission (percentage),"ITT, Double Blind Week 10",(15%)
same,HAMD-17 Remission (Score ≦10): Subjects without Remission (number),"ITT, Double Blind Week 10",113
same,HAMD-17 Remission (Score ≦10): Subjects without Remission (percentage),"ITT, Double Blind Week 10",(85%)
same,HAMD-17 reduction from baseline ≧50%: Subjects with Response (number),"ITT, Double Blind Week 10",23
same,HAMD-17 reduction from baseline ≧50%: Subjects with Response (percentage),"ITT, Double Blind Week 10",(17%)
same,HAMD-17 reduction from baseline ≧50%: Subjects without Response (number),"ITT, Double Blind Week 10",110
same,HAMD-17 reduction from baseline ≧50%: Subjects without Response (percentage),"ITT, Double Blind Week 10",(83%)
same,HAMD-17 Remission (Score ≦7): Subjects with Remission (number),"ITT, Double Blind Week 12",20
same,HAMD-17 Remission (Score ≦7): Subjects with Remission (percentage),"ITT, Double Blind Week 12",(15%)
same,HAMD-17 Remission (Score ≦7): Subjects without Remission (number),"ITT, Double Blind Week 12",113
same,HAMD-17 Remission (Score ≦7): Subjects without Remission (percentage),"ITT, Double Blind Week 12",(85%)
same,HAMD-17 Remission (Score ≦10): Subjects with Remission (number),"ITT, Double Blind Week 12",40
same,HAMD-17 Remission (Score ≦10): Subjects with Remission (percentage),"ITT, Double Blind Week 12",(30%)
same,HAMD-17 Remission (Score ≦10): Subjects without Remission (number),"ITT, Double Blind Week 12",93
same,HAMD-17 Remission (Score ≦10): Subjects without Remission (percentage),"ITT, Double Blind Week 12",(70%)
same,HAMD-17 reduction from baseline ≧50%: Subjects with Response (number),"ITT, Double Blind Week 12",45
same,HAMD-17 reduction from baseline ≧50%: Subjects with Response (percentage),"ITT, Double Blind Week 12",(34%)
same,HAMD-17 reduction from baseline ≧50%: Subjects without Response (number),"ITT, Double Blind Week 12",88
same,HAMD-17 reduction from baseline ≧50%: Subjects without Response (percentage),"ITT, Double Blind Week 12",(66%)
same,HAMD-17 Remission (Score ≦7): Subjects with Remission (number),"ITT, Double Blind Week 14",37
same,HAMD-17 Remission (Score ≦7): Subjects with Remission (percentage),"ITT, Double Blind Week 14",(28%)
same,HAMD-17 Remission (Score ≦7): Subjects without Remission (number),"ITT, Double Blind Week 14",96
same,HAMD-17 Remission (Score ≦7): Subjects without Remission (percentage),"ITT, Double Blind Week 14",(72%)
same,HAMD-17 Remission (Score ≦10): Subjects with Remission (number),"ITT, Double Blind Week 14",60
same,HAMD-17 Remission (Score ≦10): Subjects with Remission (percentage),"ITT, Double Blind Week 14",(45%)
same,HAMD-17 Remission (Score ≦10): Subjects without Remission (number),"ITT, Double Blind Week 14",73
same,HAMD-17 Remission (Score ≦10): Subjects without Remission (percentage),"ITT, Double Blind Week 14",(55%)
same,HAMD-17 reduction from baseline ≧50%: Subjects with Response (number),"ITT, Double Blind Week 14",72
same,HAMD-17 reduction from baseline ≧50%: Subjects with Response (percentage),"ITT, Double Blind Week 14",(54%)
same,HAMD-17 reduction from baseline ≧50%: Subjects without Response (number),"ITT, Double Blind Week 14",61
same,HAMD-17 reduction from baseline ≧50%: Subjects without Response (percentage),"ITT, Double Blind Week 14",(46%)
same,HAMD-17 Remission (Score ≦7): Subjects with Remission (number),"ITT, Double Blind Week 16",52
same,HAMD-17 Remission (Score ≦7): Subjects with Remission (percentage),"ITT, Double Blind Week 16",(39%)
same,HAMD-17 Remission (Score ≦7): Subjects without Remission (number),"ITT, Double Blind Week 16",81
same,HAMD-17 Remission (Score ≦7): Subjects without Remission (percentage),"ITT, Double Blind Week 16",(61%)
same,HAMD-17 Remission (Score ≦10): Subjects with Remission (number),"ITT, Double Blind Week 16",83
same,HAMD-17 Remission (Score ≦10): Subjects with Remission (percentage),"ITT, Double Blind Week 16",(62%)
same,HAMD-17 Remission (Score ≦10): Subjects without Remission (number),"ITT, Double Blind Week 16",50
same,HAMD-17 Remission (Score ≦10): Subjects without Remission (percentage),"ITT, Double Blind Week 16",(38%)
same,HAMD-17 reduction from baseline ≧50%: Subjects with Response (number),"ITT, Double Blind Week 16",90
same,HAMD-17 reduction from baseline ≧50%: Subjects with Response (percentage),"ITT, Double Blind Week 16",(68%)
same,HAMD-17 reduction from baseline ≧50%: Subjects without Response (number),"ITT, Double Blind Week 16",43
same,HAMD-17 reduction from baseline ≧50%: Subjects without Response (percentage),"ITT, Double Blind Week 16",(32%)
same,"HAMD-17 total score, observed Mean","ITT, Double Blind Week 16 LOCF",9.8
same,"HAMD-17 total score, observed Median","ITT, Double Blind Week 16 LOCF",8.0
same,HAMD-17 Mean Difference between TC-5214 and Placebo,"ITT, Double Blind Week 16 LOCF (change from Week 8)",6.00
same,HAMD-17 Remission (Score ≦7): Subjects with Remission (number),[3],60
same,HAMD-17 Remission (Score ≦7): Subjects with Remission (percentage),[3],(45%)
same,HAMD-17 Remission (Score ≦7): Subjects without Remission (number),[3],73
same,HAMD-17 Remission (Score ≦7): Subjects without Remission (percentage),[3],(55%)
same,HAMD-17 Remission (Score ≦10): Subjects with Remission (number),[3],85
same,HAMD-17 Remission (Score ≦10): Subjects with Remission (percentage),[3],(64%)
same,HAMD-17 Remission (Score ≦10): Subjects without Remission (number),[3],48
same,HAMD-17 Remission (Score ≦10): Subjects without Remission (percentage),[3],(36%)
same,HAMD-17 reduction from baseline ≧50%: Subjects with Response (number),[3],89
same,HAMD-17 reduction from baseline ≧50%: Subjects with Response (percentage),[3],(67%)
same,HAMD-17 reduction from baseline ≧50%: Subjects without Response (number),[3],44
same,HAMD-17 reduction from baseline ≧50%: Subjects without Response (percentage),[3],(33%)
same,"HAMD-17 total score, observed Mean",[4],9.4
same,"HAMD-17 total score, observed Median",[4],8.0
same,HAMD-17 Adjusted Mean change,[5],−0.70
same,HAMD-17 Mean Difference between TC-5214 and Placebo,[5],−0.13
same,HAMD-17 Difference vs Placebo + CIT,"ITT, Week 8 to Week 16 LOCF",−6.0
same,HAMD-17 total (raw) score change from baseline compared with placebo by week,"ITT, Weeks 10, 12, 14, and 16, result in words",statistically significant decreases (improvements)
